Twelve compounds from patent publication US6339101B1, “N-linked sulfonamides of N-heterocyclic carboxylic acids or isosteres for vision and memory disorders” (GPI NIL Holdings, Inc., priority 1998, dated 2002) can be followed below.

Series [1] deals with retinal ganglion cell axons. The experiment in a line: Protection of retinal ganglion cell axons from degeneration following optic nerve transection (Table V). The series is classed as in vivo. To be noted: ± SEM. From the text:
Efficacy of representative compounds from different immunophilin ligand series in protecting retinal ganglion cell axons from degeneration following optic nerve transection is set forth in Table V.

The target in the next series is FKBP12 (Homo sapiens, UniProt P62942). The experiment in a line: Ki test: inhibition of peptidyl-prolyl isomerase (rotamase) activity of FKBP. Format: biochemical. The note with it: apparent Ki; read-out: Ki rotomase.
FKBP12, sequence (P62942 whole entry, species assumed): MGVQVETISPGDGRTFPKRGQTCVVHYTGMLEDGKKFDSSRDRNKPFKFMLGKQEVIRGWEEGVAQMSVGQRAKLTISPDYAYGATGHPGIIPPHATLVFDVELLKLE
Series [2] in a line: Clearance (Table V comments). The series is classed as in vitro ADME.
Series [3] has as its system retinal ganglion cells, optic nerve axons and myelin. In words: Retinal ischemia by raised intraocular pressure. The series is classed as in vivo, rats. To be noted: 28 days after 1 hour retinal ischemia. The text has this:
Retinal ganglion cells were retrogradely labeled in adult rats by bilateral injection of fluorogold in their lateral geniculate nuclei. Labeled ganglion cells in the normal rat retina appear as white profiles against the dark background (FIG. 1A). Complete retinal ischemia was produced by infusing normal saline solution into the retinal vitreous cavity of each eye until the intraocular pressure exceeded arterial blood pressure. 28 days after the ischemic episode extensive degeneration of retinal ganglion cell was evidenced by massive reduction in the density of fluorogold labeled cells (FIG. 1B).
Optic nerves from vehicle treated cases examined 28 days after a 1 hour retinal ischemia episode are characterized by a decreased density of optic nerve axons and the appearance of numerous degenerating myelin figures (bright white filled circles).

The next series deals with retina. In words: Streptozotocin induced diabetes, retinal neovascularization and neuron loss. The series is classed as in vivo. The note with it: 28 day treatment beginning 8 weeks after onset of streptozotocin diabetes.
The subject of the next series is retinal ganglion cells. The experiment in a line: Example 18: optic nerve transection, ganglion cell survival and axonal dying back. The series is classed as in vivo, Sprague Dawley rats. The note with it: 10 mg/kg/day s.c. for 28 days; 90 days after transection. From the text:
Transection of the mammalian optic nerve results in a brief period of abortive regeneration, but the majority of axotomized neurons die and the axons from many persisting ganglion cells die back beyond the optic nerve head.

Series [4] deals with retinal ganglion cells and optic nerve axons. The experiment in a line: In vivo retinal ganglion cell and optic nerve axon tests after optic nerve transection (Table 1). The note with it: 90 days after optic nerve transection. Further details: species or system Sprague Dawley rats. From the text:
All eyes and optic nerve stumps were removed.

A short description of series [5]: Morris watermaze spatial learning and memory in aged rodents. To be noted: aged impaired mice, 10 mg/kg daily, after 3 weeks of dosing; vs young mice. Format: in vivo, C57BL/6N-Nia mice. From the text: The Morris watermaze is widely used for assessing spatial memory formation and retention in experimental animals. The test depends on the animal's ability to utilize spatial visual information in order to locate a submerged escape platform in a water tank. It is important that the tank itself be as devoid of specific visual features as possible—thus, it is always circular in shape, the sides are kept smooth and in uniform dull colors, and the water is rendered opaque with nontoxic watercolor pigment or powdered milk. This is to ensure that the animal navigates only by the use of more distant visual cues, or by the use of intra-maze cues specifically provided by the experimenter.
The animals' path, speed, and swim time are tracked with a ceiling camera for later computerized analysis. Over the course of several successive trials, spatial learning can therefore be defined as a drop of distance swum, or time elapsed, from placement in the tank until escape onto the invisible platform. […]
Retention testing began after 3 weeks of dosing using the same methods as the acquisition phase. Swim Distances (cm) were analyzed in a 7×5 ANOVA including Groups and Blocks (1-5) as factors in the analysis, treating Blocks as a repeated measure.

Excerpt for FKBP12: The inhibition of the prolyl peptidyl cis-trans isomerase activity of FKBP may be measured as an indicator of this affinity.
These values are obtained as apparent Ki's.
The cis-trans isomerization of an alanine-proline bond in a model substrate, N-succinyl-Ala-Ala-Pro-Phe-p-nitroanilide, is monitored spectrophotometrically in a chymotrypsin-coupled assay, which releases para-nitroanilide from the trans form of the substrate. The inhibition of this reaction caused by the addition of different concentrations of inhibitor is determined, and the data is analyzed as a change in first-order rate constant as a function of inhibitor concentration to yield the apparent Ki values.
In a plastic cuvette are added 950 ml of ice cold assay buffer (25 mM HEPES, pH 7.8, 100 nM NaCl), 10 ml of FKBP (2.5 mM in 10 mM Tris-Cl pH 7.5, 100 mM NaCl, 1 mM dithiothreitol), 25 ml of chymotrypsin (50 mg/ml in 1 mM HCl) and 10 ml of test compound at various concentrations in dimethyl sulfoxide. The reaction is initiated by the addition of 5 ml of substrate (succinyl-Ala-Phe-Pro-Phe-para-nitroanilide, 5 mg/ml in 2.35 mM LiCl in trifluoroethanol).
The absorbance at 390 nm versus time is monitored for 90 seconds using a spectrophotometer and the rate constants are determined from the absorbance versus time data files.

In the case of `O=C(SCCCc1ccccc1)C1CCCN1C(=O)NC12CC3CC(CC(C3)C1)C2` (stereo not shown) [B], the “RT-RGC azon density 11 days after ON Transection ( axon rescued)” value (“RT-RGC azon density 11 days” for short) in series [1] was 100.0% ±5.2% SEM.
The same measure, in the same setting: to `O=C(SCCCc1ccccc1)[C@@H]1CCCN1S(=O)(=O)Cc1ccccc1` [C] belongs 60.4% ±3.1% SEM; to `O=C(OCCCCc1ccccc1)[C@@H]1CCCCN1S(=O)(=O)Cc1ccccc1` [D], 58.4% ±6.4% SEM.
For the compound `CCC(C)(C)C(=O)C(=O)N1CCCC[C@H]1C(=O)SC(CCc1ccccc1)CCc1ccccc1` [E], the “RT-RGC azon density 11 days” value in series [1] is 56.6% ±9.4% SEM. Also, the Ki on FKBP12 stood at 20 nM. Further, the Clearance in series [2] came to 41.8 µL/min.
Take `CCC(C)(C)C(=O)C(=O)N1CCS[C@H]1C(=O)OCCCc1cccnc1` [F]: the “RT-RGC azon density 11 days” value in series [1] is 55.1% ±5.9% SEM.
As to `CCC(C)(C)C(=O)C(=O)N1CCC[C@H]1C(=O)OCCCc1cccnc1` [GPI 1046], the “RT-RGC azon density 11 days” value in series [1] was 60.5% ±3.9 SEM. Moreover, on FKBP12, the Ki came to 7.5 nM. The “protection of optic nerve axons from degeneration” value in series [3] is “protected the majority of optic nerve axons from degeneration”. Moreover, in the series on retina, the “loss of neurons in INL and GCL” value was “appeared to decrease the loss of neurons”; the “neovascularization in PR, ONL, OPL and INL of retina” value was “reduced neovascularization”; the “neuronal loss in the ONL” value is “did not appear to protect”. In the series on retinal ganglion cells, the “ganglion cell population spared” value was determined as 25% and the “preservation of axons of protected neurons in proximal stump” value was “preserved the axons of virtually all protected neurons”. In addition, the “RGC Counts (mean density + SEM of Fluoro-gold labeled retinal ganglion cells in 400 μm × 400 μm gridfields)” value in series [4] (10 mg/kg/day sc for 28 days) was determined as 67.9 ± 5.8. In series [4] (14 days treatment), the “increased ON axon density (adjusted for optic nerve diameter)” value is 1.5X. In series [4] (28 days treatment), the “increased ON axon density (adjusted for optic nerve diameter)” value is on record as 5.0X. For the same compound, the “difference between young and aged impaired GPI-1046 treated groups, retention phase” value in series [5] is “no longer any statistically significant difference”.
For the compound `CCC(C)(C)C(=O)C(=O)N1CCCC[C@H]1C(=O)O` [G], in series [1], the “RT-RGC azon density 11 days” value is recorded as 34.0% ±4.8% SEM.
In the case of `CCC(C)(C)C(=O)C(=O)N1CCCC[C@H]1C(N)=O` [H], in series [1], the “RT-RGC azon density 11 days” value is reported as 30.3% ±8.0% SEM.
`CCC(C)(C)C(=O)C(=O)N1CCC[C@H]1C(=O)CCCCc1cccnc1` [J]: in series [1], the “RT-RGC azon density 11 days” value was 15.8% ±4.8% SEM.
With `CCC(C)(C)C(=O)C(=O)N1CCCC[C@H]1C(=O)SCCC(c1ccccc1)c1ccccc1` [K], the “RT-RGC azon density 11 days” value in series [1] was 13.0% ±4.2% SEM.
Take `CCC(C)(C)C(=O)C(=O)N1CCC[C@H]1C(=O)O` [L]: in series [1], the “RT-RGC azon density 11 days” value is 7.8% ±3.0% SEM.
Regarding `CCC(C)(C)C(=O)C(=O)N1CCC[C@H]1C(=O)SCCC(c1ccccc1)c1ccccc1` [M], the “RT-RGC azon density 11 days” value in series [1] is on record as −6.3% +3.9% SEM.
